Assay results as given in publication PMC9311596, “Main Bioactive Components and Their Biological Activities from Natural and Processed Rhizomes of Polygonum sibiricum” (Antioxidants, 2022).
Entries after “also recorded” stand apart in the source; their conditions may differ. Read-outs that look alike come from different tables or passages of the source.

Assays:
[1] = DPPH radical scavenging assay; conditions: for EC50: isolated components, read-out: SC50 DPPH
Experimental: (§1) This assay was determined using the procedure previously reported.

[2] = Ferric reducing antioxidant power (FRAP) assay; conditions: for FRAP (TE): isolated components, mM Trolox equivalents per gram
Experimental: The FRAP assay was determined using the method previously reported.

[3] = Superoxide radical scavenging assay; conditions: isolated components; read-out: SC50 Superoxide
Experimental: This assay was determined using the method previously reported.

[4] = system: LPS-induced NO production in RAW264.7 macrophages; test: Nitric oxide inhibitory assay; format: cell-based, Murine; conditions: Mus musculus
Experimental: Murine RAW264.7 macrophages were cultured in DMEM medium containing 10% fetal bovine serum (FBS) and 1% penicillin at 37 °C, 5% CO2 [37].
The NO inhibitory assay was performed based on the reference method.

[5] = ABTS radical scavenging assay; conditions: for EC50: isolated components, read-out: SC50 ABTS
Experimental: as §1

[6] = target: T1, acetylcholinesterase (AChE) (Electrophorus electricus, UniProt O42275); test: biochemical
T1 construct: purchased Sigma-Aldrich
Experimental: The AChE inhibitory assay was performed according to the previous method, with slight modifications. First, 1 mL of DTNB (15 mM) solution, 1 mL of AChI (15 mM) solution, 1 mL of AChE (0.2 U/mL), and various concentrations of PS (50–400 μg/mL) were prepared using sodium phosphate buffer (0.1 M, pH 8.0). The reaction was started by adding 140 μL PBS, 10 μL DTNB solution, 15 μL AChE solution and 20 μL sample. The reaction mixture was incubated at 20 °C in the dark for 10 min, and 10 μL of AChI solution was added. Finally, the reaction mixture was incubated at 20 °C for 10 min, and the absorbance was measured at 405 nm.

iNOS = test: Western blot analysis of iNOS; format: cell-based, Murine; conditions: 12.5, 25, and 50 µM, LPS 100 ng/mL, RAW264.7
Experimental: (§2) The Western blot analysis was performed using the reference method with slight modifications. RAW264.7 cells were seeded in 6 cm dishes for 24 h. The cells were treated with sample (12.5, 25, and 50 µM) and LPS (100 ng/mL). After treatment with drugs, cells were washed with cold PBS, and proteins were collected with lysis buffer containing protein inhibitors. After quantification, equal amounts of protein samples were separated using 5–8% SDS-polyacrylamide gels. The proteins were transferred to the membrane by electrophoresis. The membranes were soaked in 2% BSA blocking buffer for 2 h and then washed 2–3 times with TBST. Next, the membranes were visualized with primary antibody (iNOS, TNF-α, and IL-6) and soaked for 1 day. The next day, membranes were washed again with TBST 2–3 times and then soaked with secondary antibody for 2 h. Finally, immuno-reactivity was detected with ECL reagents, exposed with a luminometer photometer, and quantified with Image J.

TNF-α = test: Western blot analysis of TNF-α; format: cell-based, Murine; conditions: 12.5, 25, and 50 µM, LPS 100 ng/mL, RAW264.7
Experimental: as §2

IL-6 = test: Western blot analysis of IL-6; format: cell-based, Murine; conditions: 12.5, 25, and 50 µM, LPS 100 ng/mL, RAW264.7
Experimental: as §2

[7] = isolated compounds, LPS-induced NO, RAW264.7, read-out: Nitric Oxide IC50
[8] = isolated compounds, read-out: AChE IC50 (converted)
[9] = solvent extracts, concentration causing 50% free radical scavenging
[10] = RAW264.7, read-out: Nitric Oxide IC50

T1 sequence (O42275 24-633): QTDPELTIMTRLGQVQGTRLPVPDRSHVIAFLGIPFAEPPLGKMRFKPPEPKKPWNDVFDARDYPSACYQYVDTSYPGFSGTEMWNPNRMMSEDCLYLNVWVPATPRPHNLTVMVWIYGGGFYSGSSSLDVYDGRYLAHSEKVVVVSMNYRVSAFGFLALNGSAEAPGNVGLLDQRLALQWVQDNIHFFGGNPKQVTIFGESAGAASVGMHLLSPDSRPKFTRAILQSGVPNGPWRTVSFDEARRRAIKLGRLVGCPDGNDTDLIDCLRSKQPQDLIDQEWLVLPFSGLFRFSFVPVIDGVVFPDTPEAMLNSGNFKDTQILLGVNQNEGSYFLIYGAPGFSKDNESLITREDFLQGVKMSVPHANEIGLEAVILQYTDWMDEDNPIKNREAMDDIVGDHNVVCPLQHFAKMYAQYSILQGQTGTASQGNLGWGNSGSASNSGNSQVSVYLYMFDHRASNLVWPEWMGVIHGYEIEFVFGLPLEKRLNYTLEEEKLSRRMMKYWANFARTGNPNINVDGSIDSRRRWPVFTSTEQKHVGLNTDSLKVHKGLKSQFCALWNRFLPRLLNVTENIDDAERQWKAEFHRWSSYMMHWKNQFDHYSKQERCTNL

Q: What does the source list for `COc1cc2ccc(=O)oc2cc1O` [Scopoletin (2), scopoletin]?
A: EC50 [1]: > 400 µM; FRAP (TE) [2]: 2892.97 ± 19.18 mM/g; EC50 [3]: > 400 µM; IC50 [4, 7]: 36.3 ± 4.65 µM; EC50 [5]: 91.3 ± 3.36 µM; IC50 [6]: 32.4 ± 2.05 µM

Q: With `O=C(/C=C/c1ccc(O)c(O)c1)O[C@@H]1C[C@](O)(C(=O)O)C[C@@H](O)[C@H]1O` [Chlorogenic acid, chlorogenic acid, reference compound] as the compound, how does the IC50 [6, 8] read?
A: 68.2 ± 2.9 µM

Q: What about the IC50 ([6]; solvent extracts, read-out: AChE IC50 (converted)) of the same compound?
A: 65.7 µM

Q: For `O=c1c(O)c(-c2ccc(O)c(O)c2)oc2cc(O)cc(O)c12` [Quercetin, quercetin, reference compound], which IC50 [4, 7] is on record?
A: 18.3 ± 0.54 µM

Q: And the IC50 ([4]; solvent extracts, LPS-induced NO, RAW264.7, read-out: Nitric Oxide IC50)?
A: 7.52 ± 0.25 µg/mL

Q: With `Cc1cc(C(C)(C)C)c(O)c(C(C)(C)C)c1` [BHT, Butylated hydroxytoluene, reference compound] as the compound, how does the EC50 [1] read?
A: 192 ± 8.94 µM

Q: And the “SC50 DPPH” value [1, 9]?
A: 35.54 ± 0.64 µg/mL

Q: What about the “FRAP (TE)” value [2] of the same compound?
A: 2896.93 ± 21.19 mM/g

Q: What about the “TE FRAP” value ([2]; solvent extracts, mM Trolox equivalents per gram of fresh extract) of the same compound?
A: 3005.93 ± 13.10 mM/g

Q: And the EC50 [5]?
A: 100 ± 7.26 µM

Q: What about the “SC50 ABTS” value [5, 9] of the same compound?
A: 20.57 ± 0.22 µg/mL

Q: For `O=c1c(O[C@@H]2O[C@H](CO)[C@H](O)[C@H](O)[C@H]2O)c(-c2ccc(O)c(O)c2)oc2cc(O)cc(O)c12` [Hyperoside (4), hyperoside], which EC50 [1] is on record?
A: 12.5 ± 4.02 µM

Q: What about the “inhibition of iNOS production” value (iNOS) of the same compound?
A: significantly inhibited iNOS production in a concentration-dependent manner

Q: And the “FRAP (TE)” value [2]?
A: 3246.93 ± 31.92 mM/g

Q: What about the EC50 [3] of the same compound?
A: 172 ± 3.8 µM

Q: What about the IC50 [4, 10] of the same compound?
A: 18.9 ± 1.68 µM

Q: What about the EC50 [5] of the same compound?
A: 29.3 ± 0.51 µM

Q: What about the “inhibition of TNF-α production” value (TNF-α) of the same compound?
A: significantly inhibited the production of TNF-α and IL-6 in a concentration-dependent manner

Q: And the IC50 [6]?
A: 121 ± 10.7 µM

Q: And the “inhibition of IL-6 production” value (IL-6)?
A: significantly inhibited the production of TNF-α and IL-6 in a concentration-dependent manner

Q: For `C[C@@H]1O[C@@H](OC[C@H]2O[C@@H](Oc3c(-c4ccc(O)c(O)c4)oc4cc(O)cc(O)c4c3=O)[C@H](O)[C@@H](O)[C@@H]2O)[C@H](O)[C@H](O)[C@H]1O` [Rutin (5), rutin], which EC50 [1] is on record?
A: 5.6 ± 0.34 µM

Q: What about the “inhibition of iNOS production” value (iNOS) of the same compound?
A: strongest inhibitory effect among all isolated compounds; also recorded: significantly inhibited iNOS production in a concentration-dependent manner

Q: And the “FRAP (TE)” value [2]?
A: 2221.33 ± 5.02 mM/g

Q: What about the EC50 [3] of the same compound?
A: 175 ± 3.02 µM

Q: And the IC50 [4, 10]?
A: 9.89 ± 1.36 µM

Q: And the EC50 [5]?
A: 15.4 ± 0.25 µM

Q: What about the “inhibition of TNF-α production” value (TNF-α) of the same compound?
A: significantly inhibited the production of TNF-α and IL-6 in a concentration-dependent manner

Q: And the IC50 [6]?
A: 33.1 ± 5.43 µM

Q: What about the “inhibition of IL-6 production” value (IL-6) of the same compound?
A: significantly inhibited the production of TNF-α and IL-6 in a concentration-dependent manner

Q: With `O=c1c(O[C@@H]2O[C@H](CO)[C@@H](O)[C@H](O)[C@H]2O)c(-c2ccc(O)c(O)c2)oc2cc(O)cc(O)c12` [Isoquercetin (3), isoquercetin] as the compound, how does the EC50 [1] read?
A: 12.6 ± 3.21 µM

Q: And the “inhibition of iNOS production” value (iNOS)?
A: significantly inhibited iNOS production in a concentration-dependent manner

Q: What about the “FRAP (TE)” value [2] of the same compound?
A: 3898.88 ± 23.23 mM/g

Q: What about the EC50 [3] of the same compound?
A: 180 ± 4.43 µM

Q: What about the IC50 [4, 10] of the same compound?
A: 17 ± 1.28 µM

Q: What about the EC50 [5] of the same compound?
A: 22.7 ± 1.17 µM

Q: And the “inhibition of TNF-α production” value (TNF-α)?
A: significantly inhibited the production of TNF-α and IL-6 in a concentration-dependent manner

Q: What about the IC50 [6] of the same compound?
A: 23.1 ± 3.15 µM

Q: What about the “inhibition of IL-6 production” value (IL-6) of the same compound?
A: significantly inhibited the production of TNF-α and IL-6 in a concentration-dependent manner

Q: For `O=Cc1ccc(CO)o1` [5-HMF (1), 5-hydroxymethylfurfural], which EC50 [1] is on record?
A: > 400 µM

Q: And the “FRAP (TE)” value [2]?
A: 26.70 ± 0.97 mM/g

Q: What about the EC50 [3] of the same compound?
A: > 400 µM

Q: What about the IC50 [4, 7] of the same compound?
A: 34.9 ± 8.8 µM

Q: And the EC50 [5]?
A: > 400 µM

Q: What about the IC50 [6, 8] of the same compound?
A: 81.5 ± 11.1 µM
